In brackets after ≈: the same amount, converted by molar mass.
How the values were obtained:
[1] = tested on: C. neoformans isolates; assay: Activity vs susceptible and FLC non-susceptible/resistant strains, broth microdilution; format: cell-based, Cryptococcus neoformans
Source text: (§1) The activity of Gwt1 inhibitors against susceptible and FLC non-susceptible/resistant strains.
(§2) Isolates tested. C. neoformans strains H99, DUMC 118.00, DUMC 158.03 and C. gattii strains R272, and RSA-MW-3515 were obtained from Duke University. C. albicans 90028, A. fumigatus MYA3626, C. neoformans 14116, C. neoformans 76484 and the pathogenic Cryptococcus reference strains panel (ATCC MP-11) were obtained from American Type Culture Collection (ATCC, Manassas, Va., USA). The MP-11 panel consists of strains representing eight molecular types and three subtypes of C. neoformans and C. gattii.
(§3) Antifungal susceptibility testing. To establish antimicrobial activity, broth microdilution susceptibility testing was performed according to Clinical and Laboratory Standards Institute (CLSI) guidelines M27-A3 for yeasts and M38-A2 for molds. Compound 2 and analogs were first diluted in DMSO to obtain intermediate dilutions. These were further diluted in microtiter plates to obtain a final concentration of 2 to 0.002 μg/mL. 1 μl of DMSO was added to “No drug” control wells. The solutions were mixed on a plate shaker for 10 mins and plates incubated at 35° C. for 40 to 48 h (C. albicans, A. fumigatus) and 72 h (C. neoformans). The minimum concentration that led to 50% reduction in fungal growth as compared to the control (with the aid of a reading mirror) was determined as the minimum inhibitory concentration (MIC) for C. albicans and C. neoformans.

[2] = tested on: strains of C. neoformans and C. gattii; assay: Activity vs Cryptococcus, summary over the strains tested; format: cell-based, Cryptococcus neoformans and Cryptococcus gattii
Source text: as §1, §2, §3

[3] = tested on: C. gattii isolates; assay: Activity vs susceptible and FLC non-susceptible/resistant strains, broth microdilution; format: cell-based, Cryptococcus gattii
Source text: as §1, §2, §3

[4] = tested on: Cryptococcus neoformans H99; assay: In vitro antifungal assay (Example IX), microdilution broth, MIC; format: cell-based; conditions: minimum inhibitory concentration (≥50% inhibition), 35° C., 72 h, RPMI1640
Method in brief: (§4)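 CLSI broth microdilution in RPMI1640 with 2.5×10^3 cells/mL and final compound concentrations of 2-0.0019 μg/mL (1% DMSO). C. albicans 90028 plates were incubated at 35° C. for 40-48 h and C. neoformans H99 for 72 h. MIC was read as minimum inhibitory concentration, verified at 600 nm.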

[5] = tested on: Candida albicans 90028; assay: as above; format: cell-based; conditions: minimum inhibitory concentration (≥50% inhibition), 35° C., 40-48 h, RPMI1640
Method in brief: as §4

[6] = tested on: Cryptococcus gattii; assay: as above; format: cell-based; conditions: minimum inhibitory concentration (≥50% inhibition), 35° C., 72 h (Cryptococcus), RPMI1640
Method in brief: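 Broth microdilution in RPMI1640 with 2.5×10^3 cells/mL inoculum; final compound concentrations were 2–0.0019 μg/mL, with 1% DMSO. Cryptococcus plates were incubated at 35 °C for 72 h, and growth was read at 600 nm to give the MIC.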

[7] = tested on: Aspergillus fumigatus MYA3626; assay: In vitro antifungal assay (Example IX), microdilution broth, MEC; format: cell-based; conditions: minimum effective concentration (shortening of hyphae), 35° C., 40-48 h, RPMI1640
Method in brief: (§5)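 Spore suspensions of A. fumigatus and R. pusillus adjusted to 1-2×10^4 spores/mL in RPMI1640 and exposed to compound dilutions prepared in DMSO, by broth microdilution. MEC taken as the lowest concentration shortening hyphae versus DMSO control wells, read as for echinocandins.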

[8] = tested on: Rhizomucor pusillus 46342; assay: as above; format: cell-based; conditions: minimum effective concentration (shortening of hyphae), 35° C., 40-48 h, RPMI1640
Method in brief: as §5

SMILES	MIC [4] [µg/mL]	MIC [5] [µg/mL]	MIC [6] [µg/mL]	minimal effective concentration [7] [µg/mL]	minimal effective concentration [8] [µg/mL]	other results
Nc1ncccc1-c1cc(Cc2ccc(Oc3cccc(F)n3)cc2)no1 [Example 2039]	–	–	–	–	–	MIC ([1]; C. neoformans 14116): 0.004 µg/mL (≈ 0.011 µM); MIC ([1]; C. neoformans 76484): 0.004 µg/mL (≈ 0.011 µM); MIC ([1]; C. neoformans DUMC 118.00 (FLC-resistant)): 0.016 µg/mL (≈ 0.0442 µM); MIC ([1]; C. neoformans DUMC 158.03 (FLC-resistant)): 0.031 µg/mL (≈ 0.0855 µM); MIC ([1]; C. neoformans H99): 0.004 µg/mL (≈ 0.011 µM); MIC ([1]; C. neoformans MYA-4564): 0.004 µg/mL (≈ 0.011 µM); MIC ([1]; C. neoformans MYA-4565): 0.031 µg/mL (≈ 0.0855 µM); MIC ([1]; C. neoformans MYA-4566): 0.008 µg/mL (≈ 0.0221 µM); MIC ([1]; C. neoformans MYA-4567): 0.016 µg/mL (≈ 0.0442 µM); MIC GEOMEAN ([2]; geometric mean over the 18 isolates of C. neoformans and C. gattii): 0.010 µg/mL (≈ 0.0276 µM); MIC90 ([2]; panel of 18 isolates of C. neoformans and C. gattii): 0.031 µg/mL (≈ 0.0855 µM); MIC ([3]; C. gattii MYA-4093): 0.016 µg/mL (≈ 0.0442 µM); MIC ([3]; C. gattii MYA-4094): 0.016 µg/mL (≈ 0.0442 µM); MIC ([3]; C. gattii MYA-4560): 0.008 µg/mL (≈ 0.0221 µM); MIC ([3]; C. gattii MYA-4561): 0.016 µg/mL (≈ 0.0442 µM); MIC ([3]; C. gattii MYA-4562): 0.016 µg/mL (≈ 0.0442 µM); MIC ([3]; C. gattii MYA-4563): 0.016 µg/mL (≈ 0.0442 µM); MIC ([3]; C. gattii MYA-4877): 0.008 µg/mL (≈ 0.0221 µM); MIC ([3]; C. gattii RSA-MW-3615 (FLC-resistant)): 0.004 µg/mL (≈ 0.011 µM)
Cc1nc(COc2ccc(Cc3cc(-c4cccnc4N)on3)cn2)cs1 [compound 50, 3-(3-((6-((2-methylthiazol-4-yl)methoxy)pyridin-3-yl)methyl)isoxazol-5-yl)pyridin-2-amine]	0.1 to 1 (≈ 0.264 to 2.64 µM)	0.1 to 1 (≈ 0.264 to 2.64 µM)	0.1 to 1 (≈ 0.264 to 2.64 µM)	0.1 to 1	> 1	–
Nc1ncccc1-c1cc(Cc2ccc(OCc3ncccn3)nc2)no1 [compound 46, 3-(3-((6-(pyrimidin-2-ylmethoxy)pyridin-3-yl)methyl)isoxazol-5-yl)pyridin-2-amine]	0.1 to 1 (≈ 0.277 to 2.77 µM)	0.1 to 1 (≈ 0.277 to 2.77 µM)	0.1 to 1 (≈ 0.277 to 2.77 µM)	0.1 to 1	> 1	–
Nc1ncccc1-c1cc(Cc2ccc(Sc3ccccc3)nc2)no1 [compound 186, 3-(3-((6-(phenylthio)pyridin-3-yl)methyl)isoxazol-5-yl)pyridin-2-amine]	0.1 to 1 (≈ 0.277 to 2.77 µM)	0.01 to 0.1 (≈ 0.0277 to 0.277 µM)	0.01 to 0.1 (≈ 0.0277 to 0.277 µM)	0.01 to 0.1	> 1	–

Now from value to compound, other results behind:

MIC [4] [µg/mL]	MIC [5] [µg/mL]	MIC [6] [µg/mL]	SMILES	minimal effective concentration [7] [µg/mL]	minimal effective concentration [8] [µg/mL]	other results
0.01 to 0.1 (≈ 0.0265 to 0.265 µM)	0.1 to 1 (≈ 0.265 to 2.65 µM)	0.01 to 0.1 (≈ 0.0265 to 0.265 µM)	Nc1ncccc1-c1cc(Cc2ccc(Cc3cc(F)cc(F)c3)cc2)no1 [compound 212, 3-(3-(4-(3,5-difluorobenzyl)benzyl)isoxazol-5-yl)pyridin-2-amine]	0.1 to 1	0.1 to 1	–
> 1	> 1	> 1	Nc1ncccc1-c1cc(Cc2ccc(N3CCC3c3ccccc3)nc2)no1 (centres unmarked) [compound 188, 3-(3-((6-(2-phenylazetidin-1-yl)pyridin-3-yl)methyl)isoxazol-5-yl)pyridin-2-amine]	> 1	0.1 to 1	–
